Entries after “also recorded” stand apart in the source; their conditions may differ.
Legend:
A20 cells = experiment: Inhibition of anti-Fas induced apoptosis, Annexin-V/7-AAD flow cytometry; assay type: cell-based; details: anti-Fas (anti-CD95), four hours, Annexin V/7AAD staining
[1] = system: infection induced barrier function; details: cited from earlier work
[2] = system: intestinal epithelial cells; experiment: TUNEL staining of colon sections of C. rodentium infected mice; assay type: in vivo, C3H/HeOuJ mice; details: 20 mg/kg intraperitoneally on days 0, 1, 2, 3, and 5, colons day 6
Protocol: Colons of C3H/HeOuJ mice were harvested on day 6 and flushed with PBS. Tissues were fresh-frozen in O.C.T. Compound (Sakura Finetek, Zoeterwoude, The Netherlands) and stored at −80° C. Sections of 6 μm were cut and fixed with either 4% paraformaldehyde or ice-cold acetone for 1 h, dried, and stored at −20° C. TUNEL staining was performed using the In Situ Cell Death Detection Kit, TMR Red (Roche) according to manufacturer's instructions. For immunostaining, sections were blocked and incubated with primary antibodies in a humidified atmosphere for 1 hour at room temperature. After washing, conjugated secondary antibodies were added for 35 minutes. The slides were then washed and mounted with Fluoromount-G (Southern Biotech, Birmingham, Ala.). […] Analyses were performed using 10× and 20× dry objectives on a Nikon Eclipse E-600 fluorescence microscope and Adobe® Photoshop® software (Adobe Systems, San Jose, Calif.).
(§1) WT and mutant C. rodentium were prepared by incubation with shaking at 37° C. for 8 hours in LB broth medium. After 8 hours, the bacterial density was assessed at an optical density of 600 nm and confirmed by plating of serial dilutions. […]

[3] = system: IL-17+ CD4 T-cells in the lamina propria; experiment: IL-17+ CD4 T-cells in lamina propria of C. rodentium infected mice (flow cytometry); assay type: in vivo, C57BL/6J and C3H/HeOuJ mice
Protocol: (§2) The small intestines and colons of C57BL/6J or C3H/HeOuJ mice were harvested at the indicated times. […] To prepare IEL/LPL, small intestines and colons were flushed with HBSS medium without calcium or magnesium (Gibco). Intestines were cut longitudinally and washed twice briefly in HBSS, 2% FBS in 6-well plates and then placed in 15 mL ice-cold HBSS, 2% FBS in 50-mL conical tubes and vortexed at maximum setting for 15-20 seconds. Tissue was removed using long forceps into a new tube with 15 mL ice-cold HBSS, 2% FBS and vortexed again twice, for a total of three washes. The tissues were then placed in 50-mL conical tubes containing 25 mL, HBSS, 5% FBS, and 1 mM DTT (Sigma-Aldrich). Tubes were incubated on a rocker at 37° C. for 20 minutes followed by vortexing extensively at maximum setting. For IEL, fractions were collected after two rounds of 20 minutes in HBSS/FBS/DTT. Tissues were then placed in fresh tubes containing 25 mL of PBS with 1.3 mM EDTA, incubated on a rocker for 60 minutes at 37° C. and vortexed. […]
as §1

[4] = system: caspase-9 and caspase-3, caspase-8 and caspase-10, and caspase-12; details: cited from earlier work
[5] = system: IL-17+ CD4 T-cells in lamina propria; experiment: DSS-induced damage of the intestinal epithelium, IL-17+ CD4 T-cells in lamina propria lymphocytes; assay type: in vivo, C57BL/6 mice; details: DSS in water for seven days, sacrificed on day 9, small intestines and colons
Protocol: as §2, §1

Compound | Fas-induced apoptosis (A20 cells) | effect on infection induced barrier function [1] | numbers of TUNEL+ cells [2] | number of IL-17+ CD4 T-cells ([3]; C. rodentium infected C57BL/6J mice) | number of IL-17+ CD4 T-cells ([3]; both strains of C. rodentium infected mice) | prevention of apoptosis by pathway ([4]; caspase-9 and caspase-3, caspase-8 and caspase-10, and caspase-12 pathways) | prevention of apoptosis compared with other caspase inhibitors [4] | toxicity to cells [4] | IL-17+ CD4 T-cells [5]
CC(C)[C@H](NC(=O)c1ccc2ccccc2n1)C(=O)N[C@@H](CC(=O)O)C(=O)COc1c(F)cccc1F [Q-VD-OPH] | protected from undergoing Fas-induced apoptosis; also recorded: inhibits apoptosis | has no effects on infection induced barrier function | decreased numbers of TUNEL^+ cells | levels similar to those found in uninfected mice | profoundly diminished the number of IL-17^+ CD4 T-cells | equally effective in preventing apoptosis mediated by the three major apoptotic pathways | significantly more effective in preventing apoptosis than ZVAD-fmk and Boc-D-fmk | not toxic to cells even at extremely high concentrations | 
dextran sulfate sodium [dextran sulfate sodium (DSS)] |  |  |  |  |  |  |  |  | did not increase IL-17^+ CD4 T-cells over uninfected controls

— patent US8628762B2, “T-helper cell type 17 lineage-specific adjuvants, compositions and methods” (Icahn School of Medicine at Mount Sinai, priority 2008, dated 2014)
